Data published in patent US20240381872A1, “SUBSTITUTED 2,3-DIHYDRO[1,3]THIAZOLO[4,5-B]PYRIDINES, SALTS THEREOF AND THEIR USE AS HERBICIDALLY ACTIVE SUBSTANCES” (BAYER AKTIENGESELLSCHAFT, priority 2021, published 2024).

Legend:
Type in all cases: in vivo
[1] = test system: Alopecurus myosuroides (ALOMY); assay: Herbicidal pre-emergence action, section C (Table C2); conditions: Alopecurus myosuroides, pre-emergence, 504 h; application rate 320 g/ha; visual grading after ca. 3 weeks vs untreated controls; read-out: pre-emergence activity against ALOMY in %
Description: (§1) Seeds of mono- and dicotyledonous weed plants and crop plants were sown, in plastic or organic planting pots, in sandy loam and covered with soil. The compounds according to the invention, formulated in the form of wettable powders (WP) or as emulsifiable concentrates (EC), were applied to the surface of the covering soil as aqueous suspension or emulsion, with the addition of 0.5% of an additive, at an application rate of 600 l of water/ha (converted). Following treatment, the pots were placed in a greenhouse and kept under optimum growth conditions for the test plants. The visual grading of the damage to the test plants was carried out after ca. 3 weeks in comparison to untreated controls (herbicidal effect in percent (%): 100% effect=plants have died off, 0% effect=as control plants).

[2] = test system: Echinochloa crus-galli (ECHCG); assay: Herbicidal pre-emergence action, section C (Table C3); conditions: Echinochloa crus-galli, pre-emergence, 504 h; application rate 320 g/ha; visual grading after ca. 3 weeks vs untreated controls; read-out: pre-emergence activity against ECHCG in %
Description: as §1

Setaria viridis (SETVI) = assay: Herbicidal pre-emergence action, section C (Table C8); conditions: Setaria viridis, pre-emergence, 504 h; application rate 320 g/ha; visual grading after ca. 3 weeks; read-out: pre-emergence activity against SETVI in %
Description: as §1

[3] = test system: Amaranthus retroflexus (AMARE); assay: Herbicidal pre-emergence action, section C (Table C11); conditions: visual grading after ca. 3 weeks
Description: as §1

Zea mays (ZEAMX) [4] = assay: Pre-emergence effects on crop plants, section D (Table D1); conditions: visual grading after ca. 3 weeks
Description: (§2) Seeds of mono- and dicotyledonous weed plants and crop plants were sown, in plastic or organic planting pots, in sandy loam and covered with soil. The compounds according to the invention, formulated in the form of wettable powders (WP) or as emulsifiable concentrates (EC), were applied to the surface of the covering soil as aqueous suspension or emulsion, with the addition of 0.5% of an additive, at an application rate of 600 l of water/ha (converted).
(§3) Following treatment, the pots were placed in a greenhouse and kept under optimum growth conditions for the test plants. The visual grading of the damage to the test plants was carried out after ca. 3 weeks in comparison to untreated controls (herbicidal effect in percent (%): 100% effect=plants have died off, 0% effect=as control plants).
(§4) Tables D1 to D5 below show the effects of various compounds of the general formula (I) according to Table 1 on various crop plants and an application rate corresponding to 320 g/ha or below obtained by the experimental procedure mentioned above in Biological Examples, Section C.

[5] = test system: Triticum aestivum (TRZAS); assay: Pre-emergence effects on crop plants, section D (Table D2); conditions: visual grading after ca. 3 weeks
Description: as §2, §3, §4

Oryza sativa (ORYZA) [6] = assay: Pre-emergence effects on crop plants, section D (Table D3); conditions: visual grading after ca. 3 weeks
Description: as §2, §3, §4

Brassica napus (BRSNW) [7] = assay: Pre-emergence effects on crop plants, section D (Table D5); conditions: visual grading after ca. 3 weeks
Description: as §2, §3, §4

Veronica persica (VERPE) [8] = assay: Herbicidal post-emergence action, section E (Table E9); conditions: Veronica persica, 504 h, application rate 320 g/ha, visual assessment ca. 3 weeks after spraying, read-out: post-emergence activity against VERPE in %
Description: (§5) Seeds of mono- and dicotyledonous weed plants and crop plants were sown, in plastic or organic planting pots, in sandy loam, covered with soil and grown in a greenhouse under controlled growth conditions. 2 to 3 weeks after sowing, the test plants were sprayed in the single-leaf stage. The compounds according to the invention, formulated in form of wettable powders (WP) or as emulsifiable concentrates (EC), were sprayed onto the green plant parts as aqueous suspension or emulsion, with the addition of 0.5% of an additive, at an application rate of 600 l of water/ha (converted). The test plants were placed in the greenhouse for ca. 3 weeks under optimum growth conditions, and then the effect of the preparations was assessed visually in comparison with untreated controls (herbicidal effect in percent (%): 100% effect=plants have died off, 0% effect=as control plants).

Zea mays (ZEAMX) [9] = assay: Post-emergence effects on crop plants, section F (Table F1)
Description: as §5, with “plants). Tables F1 to F4 below show the effects of selected compounds of the general formula (I) according to Table 1 on various crop plants and an application rate corresponding to 320 g/ha or below obtained by the experimental procedure mentioned above.” for “plants).”

[10] = test system: Triticum aestivum (TRZAS); assay: Post-emergence effects on crop plants, section F (Table F2)
Description: as §5, with “plants). Tables F1 to F4 below show the effects of selected compounds of the general formula (I) according to Table 1 on various crop plants and an application rate corresponding to 320 g/ha or below obtained by the experimental procedure mentioned above.” for “plants).”

Oryza sativa (ORYZA) [11] = assay: Post-emergence effects on crop plants, section F (Table F3); conditions: Oryza sativa, 504 h, read-out: post-emergence activity against ORYZA in %
Description: as §5, with “plants). Tables F1 to F4 below show the effects of selected compounds of the general formula (I) according to Table 1 on various crop plants and an application rate corresponding to 320 g/ha or below obtained by the experimental procedure mentioned above.” for “plants).”

Glycine max (GLXMA) [12] = assay: Post-emergence effects on crop plants, section F (Table F4)
Description: as §5, with “plants). Tables F1 to F4 below show the effects of selected compounds of the general formula (I) according to Table 1 on various crop plants and an application rate corresponding to 320 g/ha or below obtained by the experimental procedure mentioned above.” for “plants).”

Brassica napus (BRSNW) [13] = assay: Post-emergence effects on crop plants, section F (Table F5)
Description: as §5, with “plants). Tables F1 to F4 below show the effects of selected compounds of the general formula (I) according to Table 1 on various crop plants and an application rate corresponding to 320 g/ha or below obtained by the experimental procedure mentioned above.” for “plants).”

Glycine max (GLXMA) [14] = assay: Pre-emergence effects on crop plants, section D (Table D4); conditions: visual grading after ca. 3 weeks
Description: as §2, §3, §4

Veronica persica (VERPE) [15] = assay: Herbicidal pre-emergence action, section C (Table C10); conditions: application rate 320 g/ha, visual grading after ca. 3 weeks
Description: as §1

[16] = test system: Digitaria sanguinalis (DIGSA); assay: Herbicidal pre-emergence action, section C (Table C12); conditions: Digitaria sanguinalis, pre-emergence, 504 h; application rate 320 g/ha; visual grading after ca. 3 weeks; read-out: pre-emergence activity against DIGSA in %
Description: as §1

Kochia scoparia (KCHSC) [17] = assay: Herbicidal pre-emergence action, section C (Table C13); conditions: application rate 320 g/ha, visual grading after ca. 3 weeks
Description: as §1

[18] = test system: Polygonum convolvulus (POLCO); assay: Herbicidal post-emergence action, section E (Table E7); conditions: Fallopia convolvulus, 504 h, application rate 320 g/ha, visual assessment ca. 3 weeks after spraying, read-out: post-emergence activity against POLCO in %
Description: as §5

Kochia scoparia (KCHSC) [19] = assay: Herbicidal post-emergence action, section E (Table E11); conditions: visual assessment ca. 3 weeks after spraying
Description: as §5

[20] = test system: Polygonum convolvulus (POLCO); assay: Herbicidal pre-emergence action, section C (Table C7); conditions: application rate 320 g/ha; visual grading after ca. 3 weeks
Description: as §1

[21] = Glycine max, 504 h, application rate 320 g/ha, read-out: post-emergence activity against GLXMA in %
[22] = Brassica napus, 504 h, application rate 80 g/ha, read-out: post-emergence activity against BRSNW in %
[23] = Zea mays, 504 h, application rate 320 g/ha, read-out: post-emergence activity against ZEAMX in %
[24] = Triticum aestivum, 504 h, application rate 320 g/ha, read-out: post-emergence activity against TRZAS in %
[25] = crop plant damage, application rate 320 g/ha

Row | Compound | pest or weed control at 320 g/ha [2] [%] | pest or weed control at 320 g/ha (Setaria viridis (SETVI)) [%] | pre-emergence activity against ZEAMX in % (crop plant damage) (Zea mays (ZEAMX) [4]; application rate 80 g/ha) [%] | pre-emergence activity against TRZAS in % (crop plant damage) ([5]; application rate 320 g/ha) [%] | pre-emergence activity against BRSNW in % (crop plant damage) (Brassica napus (BRSNW) [7]; application rate 320 g/ha) [%] | pest or weed control at 320 g/ha (Veronica persica (VERPE) [8]) [%] | percent crop plant damage at 320 g/ha (Glycine max (GLXMA) [12]; [21]) [%] | crop plant damage (phytotoxicity) in % at 80 g/ha (Brassica napus (BRSNW) [13]; [22]) [%] | pre-emergence activity against ZEAMX in % (crop plant damage) (Zea mays (ZEAMX) [4]; application rate 320 g/ha) [%] | percent crop plant damage (phytotoxicity) on Zea mays, post-emergence at 320 g/ha (Zea mays (ZEAMX) [9]; [23]) [%] | percent crop plant damage (wheat, post-emergence) at 320 g/ha [10, 24] [%] | pre-emergence activity against GLXMA in % (crop plant damage) (Glycine max (GLXMA) [14]; application rate 80 g/ha) [%] | pre-emergence activity against BRSNW in % (crop plant damage) (Brassica napus (BRSNW) [7]; application rate 80 g/ha) [%] | also measured
1 | O=C(C1CCCC1)N1CSc2cc(Br)c(-c3ccccc3F)nc21 [Example I-021, [6-bromo-5-(2-fluorophenyl)[1,3]thiazolo[4,5-b]pyridin-3(2H)-yl](cyclopentyl)methanone] | 90 | 80 | 0 | 0 | 0 | 80 | 20 | 10 |  |  |  |  |  | pest or weed control at 320 g/ha [1]: 80%; pest or weed control at 80 g/ha ([3]; Amaranthus retroflexus, pre-emergence, 504 h, application rate 80 g/ha, read-out: pre-emergence activity against AMARE in %): 100%; pre-emergence activity against ORYZA in % (crop plant damage) (Oryza sativa (ORYZA) [6]; application rate 80 g/ha): 10%; percent crop plant damage (phytotoxicity) on Zea mays, post-emergence at 80 g/ha (Zea mays (ZEAMX) [9]; Zea mays, 504 h, application rate 80 g/ha, read-out: post-emergence activity against ZEAMX in %): 10%; percent crop plant damage (wheat, post-emergence) at 80 g/ha ([10]; Triticum aestivum, 504 h, application rate 80 g/ha, read-out: post-emergence activity against TRZAS in %): 0%; percent crop plant damage at 80 g/ha (Oryza sativa (ORYZA) [11]; application rate 80 g/ha): 10%
2 | O=C(c1ccccc1C(F)(F)F)N1CSc2cc(Br)c(-c3ccccc3Cl)nc21 [Example I-061, [6-bromo-5-(2-chlorophenyl)[1,3]thiazolo[4,5-b]pyridin-3(2H)-yl][2-(trifluoromethyl)-phenyl]methanone] |  |  |  | 0 | 20 |  | 0 | 0 | 0 | 20 | 0 |  |  | pre-emergence activity against ORYZA in % (crop plant damage) (Oryza sativa (ORYZA) [6]; application rate 320 g/ha): 20%; pre-emergence activity against GLXMA in % (crop plant damage) (Glycine max (GLXMA) [14]; application rate 320 g/ha): 0%; percent crop plant damage at 320 g/ha (Oryza sativa (ORYZA) [11]; application rate 320 g/ha): 0%
3 | CS(=O)(=O)N1C[S+]([O-])c2cc(Br)c(-c3ccccc3Cl)nc21 (stereo not drawn) [Example I-133] | 100 | 100 |  |  |  | 80 |  | 0 | 20 | 0 | 0 | 20 |  | pest or weed control at 320 g/ha (Veronica persica (VERPE) [15]; Veronica persica, pre-emergence, 504 h, read-out: pre-emergence activity against VERPE in %): 80%; pest or weed control at 320 g/ha [16]: 100%; pest or weed control at 320 g/ha (Kochia scoparia (KCHSC) [17]; Bassia scoparia, pre-emergence, 504 h, read-out: pre-emergence activity against KCHSC in %): 90%; pre-emergence activity against TRZAS in % (crop plant damage) ([5]; application rate 80 g/ha): 0%; pest or weed control at 320 g/ha [18]: 80%; pest or weed control at 80 g/ha (Kochia scoparia (KCHSC) [19]; Bassia scoparia, 504 h, application rate 80 g/ha, read-out: post-emergence activity against KCHSC in %): 90%; percent crop plant damage at 80 g/ha (Glycine max (GLXMA) [12]; Glycine max, 504 h, application rate 80 g/ha, read-out: post-emergence activity against GLXMA in %): 0%
4 | CCS(=O)(=O)N1CS(=O)(=O)c2cc(C)c(-c3ccccc3F)nc21 [Example I-146, 3-(ethylsulfonyl)-5-(2-fluorophenyl)-6-methyl-2,3-dihydro[1,3]thiazolo[4,5-b]pyridine 1,1-dioxide] |  |  |  | 0 |  |  | 0 |  | 0 | 0 | 0 | 0 | 0 | crop plant damage (phytotoxicity) in % at 320 g/ha (Brassica napus (BRSNW) [13]; Brassica napus, 504 h, application rate 320 g/ha, read-out: post-emergence activity against BRSNW in %): 0%
5 | COCCOCCOCC(=O)N1CSc2cc(Br)c(-c3cccc(F)c3F)nc21 [Example I-148] |  |  | 0 | 0 |  |  |  |  |  |  |  | 0 | 0 | pre-emergence activity against POLCO in % [20]: 80%; pre-emergence activity against VERPE in % (Veronica persica (VERPE) [15]): 80%; pre-emergence activity against AMARE in % ([3]; application rate 320 g/ha): 90%; pre-emergence activity against KCHSC in % (Kochia scoparia (KCHSC) [17]): 90%; post-emergence activity against KCHSC in % (Kochia scoparia (KCHSC) [19]; application rate 320 g/ha): 80%; post-emergence activity against ZEAMX in % (Zea mays (ZEAMX) [9]; [25]): 0%; post-emergence activity against TRZAS in % [10, 25]: 0%; post-emergence activity against GLXMA in % (Glycine max (GLXMA) [12]; [25]): 0%; post-emergence activity against BRSNW in % (Brassica napus (BRSNW) [13]; crop plant damage, application rate 80 g/ha): 20%
